Measured values as given in the NIST ThermoML archive (doi:10.1021/je100377k).
± gives the expanded uncertainty stated by the source.

Conditions: 101.33 kPa, Liquid

Row | Compound | mass density (278.15 K) [kg/m3] | viscosity (278.15 K) [mPa·s] | mass density (283.15 K) [kg/m3] | viscosity (283.15 K) [mPa·s] | mass density (288.15 K) [kg/m3] | mass density (293.15 K) [kg/m3] | mass density (298.15 K) [kg/m3] | mass density (303.15 K) [kg/m3] | mass density (308.15 K) [kg/m3] | mass density (313.15 K) [kg/m3] | mass density (318.15 K) [kg/m3] | mass density (323.15 K) [kg/m3] | mass density (328.15 K) [kg/m3] | mass density (333.15 K) [kg/m3] | mass density (338.15 K) [kg/m3] | mass density (343.15 K) [kg/m3] | mass density (348.15 K) [kg/m3] | mass density (353.15 K) [kg/m3] | mass density (358.15 K) [kg/m3] | mass density (363.15 K) [kg/m3] | also measured
1 | CCCC[n+]1ccc(C)cc1.O=S(=O)([N-]S(=O)(=O)C(F)(F)F)C(F)(F)F | 1431 ± 1.8 | 169.9 ± 11 | 1426.3 ± 1.8 | 124.19 ± 6.2 | 1421.6 ± 1.8 | 1416.9 ± 1.8 | 1412.2 ± 1.7 | 1407.6 ± 1.7 | 1402.9 ± 1.7 | 1398.3 ± 1.7 | 1393.6 ± 1.7 | 1389 ± 1.7 | 1384.4 ± 1.7 | 1379.8 ± 1.7 | 1375.3 ± 1.7 | 1370.7 ± 1.7 | 1366.2 ± 1.7 | 1361.7 ± 1.6 | 1357.2 ± 1.6 | 1352.7 ± 1.6 | viscosity (288.15 K): 93.27 ± 3.2 mPa·s; viscosity (293.15 K): 71.72 ± 1.5 mPa·s; viscosity (298.15 K): 56.33 ± 0.6 mPa·s; viscosity (303.15 K): 45.07 ± 0.66 mPa·s; viscosity (308.15 K): 36.67 ± 0.54 mPa·s; viscosity (313.15 K): 30.28 ± 0.44 mPa·s; viscosity (318.15 K): 25.34 ± 0.37 mPa·s; viscosity (323.15 K): 21.45 ± 0.32 mPa·s; viscosity (328.15 K): 18.36 ± 0.27 mPa·s; viscosity (333.15 K): 15.87 ± 0.24 mPa·s; viscosity (338.15 K): 13.82 ± 0.21 mPa·s; viscosity (343.15 K): 12.13 ± 0.18 mPa·s; viscosity (348.15 K): 10.72 ± 0.16 mPa·s; viscosity (353.15 K): 9.54 ± 0.15 mPa·s; viscosity (358.15 K): 8.531 ± 0.13 mPa·s; viscosity (363.15 K): 7.673 ± 0.12 mPa·s
2 | CCCC[n+]1cccc(C)c1.O=S(=O)([N-]S(=O)(=O)C(F)(F)F)C(F)(F)F | 1431.2 ± 1.8 |  | 1426.6 ± 1.8 |  | 1421.9 ± 1.8 | 1417.4 ± 1.8 | 1412.8 ± 1.7 | 1408.2 ± 1.7 | 1403.6 ± 1.7 | 1399 ± 1.7 | 1394.5 ± 1.7 | 1389.9 ± 1.7 | 1385.4 ± 1.7 | 1380.9 ± 1.7 | 1376.4 ± 1.7 | 1371.9 ± 1.7 | 1367.4 ± 1.7 | 1362.9 ± 1.6 | 1358.5 ± 1.6 | 1354.1 ± 1.6 | viscosity (278.15 K, Capillary tube (Ostwald / Ubbelohde) method): 195.43 ± 4.6 mPa·s; viscosity (283.15 K, Capillary tube (Ostwald / Ubbelohde) method): 142.73 ± 2.7 mPa·s; viscosity (288.15 K, Capillary tube (Ostwald / Ubbelohde) method): 107.15 ± 1.6 mPa·s; viscosity (293.15 K, Capillary tube (Ostwald / Ubbelohde) method): 82.19 ± 0.97 mPa·s; viscosity (298.15 K, Capillary tube (Ostwald / Ubbelohde) method): 64.36 ± 0.62 mPa·s; viscosity (303.15 K, Capillary tube (Ostwald / Ubbelohde) method): 51.39 ± 0.45 mPa·s; viscosity (308.15 K, Capillary tube (Ostwald / Ubbelohde) method): 41.64 ± 0.4 mPa·s; viscosity (313.15 K, Capillary tube (Ostwald / Ubbelohde) method): 34.26 ± 0.33 mPa·s; viscosity (318.15 K, Capillary tube (Ostwald / Ubbelohde) method): 28.57 ± 0.27 mPa·s; viscosity (323.15 K, Capillary tube (Ostwald / Ubbelohde) method): 24.1 ± 0.23 mPa·s; viscosity (328.15 K, Capillary tube (Ostwald / Ubbelohde) method): 20.57 ± 0.2 mPa·s; viscosity (333.15 K, Capillary tube (Ostwald / Ubbelohde) method): 17.71 ± 0.17 mPa·s; viscosity (338.15 K, Capillary tube (Ostwald / Ubbelohde) method): 15.38 ± 0.15 mPa·s; viscosity (343.15 K, Capillary tube (Ostwald / Ubbelohde) method): 13.47 ± 0.13 mPa·s; viscosity (348.15 K, Capillary tube (Ostwald / Ubbelohde) method): 11.9 ± 0.11 mPa·s; viscosity (353.15 K, Capillary tube (Ostwald / Ubbelohde) method): 10.56 ± 0.1 mPa·s; viscosity (358.15 K, Capillary tube (Ostwald / Ubbelohde) method): 9.44 ± 0.091 mPa·s; viscosity (363.15 K, Capillary tube (Ostwald / Ubbelohde) method): 8.484 ± 0.082 mPa·s
3 | CCC[n+]1cccc(C)c1.O=S(=O)([N-]S(=O)(=O)C(F)(F)F)C(F)(F)F | 1467.1 ± 1.9 | 159.86 ± 10 | 1462.3 ± 1.9 | 117.81 ± 5.5 | 1457.5 ± 1.8 | 1452.8 ± 1.8 | 1447.5 ± 1.8 | 1442.8 ± 1.8 | 1438.1 ± 1.8 | 1433.4 ± 1.8 | 1428.8 ± 1.8 | 1424.1 ± 1.8 | 1419.5 ± 1.8 | 1414.9 ± 1.8 | 1410.3 ± 1.7 | 1405.7 ± 1.7 | 1401.1 ± 1.7 | 1396.6 ± 1.7 | 1392.1 ± 1.7 | 1387.7 ± 1.7 | viscosity (288.15 K): 89.22 ± 2.9 mPa·s; viscosity (293.15 K): 69.11 ± 1.3 mPa·s; viscosity (298.15 K): 54.94 ± 0.55 mPa·s; viscosity (303.15 K): 44.22 ± 0.64 mPa·s; viscosity (308.15 K): 36.15 ± 0.53 mPa·s; viscosity (313.15 K): 29.98 ± 0.44 mPa·s; viscosity (318.15 K): 25.2 ± 0.37 mPa·s; viscosity (323.15 K): 21.43 ± 0.32 mPa·s; viscosity (328.15 K): 18.41 ± 0.27 mPa·s; viscosity (333.15 K): 15.97 ± 0.24 mPa·s; viscosity (338.15 K): 13.97 ± 0.21 mPa·s; viscosity (343.15 K): 12.31 ± 0.19 mPa·s; viscosity (348.15 K): 10.93 ± 0.17 mPa·s; viscosity (353.15 K): 9.769 ± 0.15 mPa·s; viscosity (358.15 K): 8.782 ± 0.14 mPa·s; viscosity (363.15 K): 7.937 ± 0.12 mPa·s
4 | CCCC[n+]1ccccc1.O=S(=O)([N-]S(=O)(=O)C(F)(F)F)C(F)(F)F [1-butylpyridinium bis[(trifluoromethyl)sulfonyl]imide] | 1467.6 ± 1.9 | 181.81 ± 13 | 1462.8 ± 1.9 | 133.34 ± 7.1 | 1458.1 ± 1.8 | 1453.4 ± 1.8 | 1448.7 ± 1.8 | 1444 ± 1.8 | 1439.3 ± 1.8 | 1434.6 ± 1.8 | 1430 ± 1.8 | 1425.4 ± 1.8 | 1420.7 ± 1.8 | 1416.1 ± 1.8 | 1411.6 ± 1.7 | 1407 ± 1.7 | 1402.5 ± 1.7 | 1398 ± 1.7 | 1393.5 ± 1.7 | 1389 ± 1.7 | viscosity (288.15 K): 100.65 ± 3.9 mPa·s; viscosity (293.15 K): 77.72 ± 1.9 mPa·s; viscosity (298.15 K): 61.25 ± 0.82 mPa·s; viscosity (303.15 K): 49.15 ± 0.72 mPa·s; viscosity (308.15 K): 40.09 ± 0.58 mPa·s; viscosity (313.15 K): 33.17 ± 0.49 mPa·s; viscosity (318.15 K): 27.81 ± 0.41 mPa·s; viscosity (323.15 K): 23.59 ± 0.35 mPa·s; viscosity (328.15 K): 20.23 ± 0.3 mPa·s; viscosity (333.15 K): 17.51 ± 0.26 mPa·s; viscosity (338.15 K): 15.28 ± 0.23 mPa·s; viscosity (343.15 K): 13.44 ± 0.2 mPa·s; viscosity (348.15 K): 11.91 ± 0.18 mPa·s; viscosity (353.15 K): 10.62 ± 0.16 mPa·s; viscosity (358.15 K): 9.528 ± 0.15 mPa·s; viscosity (363.15 K): 8.594 ± 0.13 mPa·s
5 | CCCCCC[n+]1ccccc1.O=S(=O)([N-]S(=O)(=O)C(F)(F)F)C(F)(F)F [1-hexylpyridinium bis(trifluromethylsulfonyl)imide] | 1412.5 ± 1.7 | 322.08 ± 32 | 1407.8 ± 1.7 | 229.05 ± 19 | 1403.2 ± 1.7 | 1398.7 ± 1.7 | 1394.2 ± 1.7 | 1389.7 ± 1.7 | 1385.2 ± 1.7 | 1380.7 ± 1.7 | 1376.3 ± 1.7 | 1371.8 ± 1.7 | 1367.3 ± 1.7 | 1362.9 ± 1.6 | 1358.5 ± 1.6 | 1354 ± 1.6 | 1349.6 ± 1.6 | 1345.3 ± 1.6 | 1340.9 ± 1.6 | 1336.6 ± 1.6 | viscosity (288.15 K): 167.56 ± 11 mPa·s; viscosity (293.15 K): 125.56 ± 6.3 mPa·s; viscosity (298.15 K): 96.21 ± 3.5 mPa·s; viscosity (303.15 K): 75.22 ± 1.7 mPa·s; viscosity (308.15 K): 59.86 ± 0.75 mPa·s; viscosity (313.15 K): 48.42 ± 0.7 mPa·s; viscosity (318.15 K): 39.74 ± 0.58 mPa·s; viscosity (323.15 K): 33.04 ± 0.48 mPa·s; viscosity (328.15 K): 27.79 ± 0.41 mPa·s; viscosity (333.15 K): 23.64 ± 0.35 mPa·s; viscosity (338.15 K): 20.3 ± 0.3 mPa·s; viscosity (343.15 K): 17.58 ± 0.26 mPa·s; viscosity (348.15 K): 15.35 ± 0.23 mPa·s; viscosity (353.15 K): 13.51 ± 0.2 mPa·s; viscosity (358.15 K): 11.96 ± 0.18 mPa·s; viscosity (363.15 K): 10.66 ± 0.16 mPa·s
6 | CCCCCCCC[n+]1cccc(C)c1 [1-octyl-3-methylpyridinium] | 1347.2 ± 1.6 | 398.72 ± 45 | 1342.7 ± 1.6 | 281.38 ± 26 | 1338.2 ± 1.6 | 1333.8 ± 1.6 | 1329.5 ± 1.6 | 1325.2 ± 1.6 | 1320.9 ± 1.6 | 1316.6 ± 1.5 | 1312.3 ± 1.5 | 1308 ± 1.5 | 1303.7 ± 1.5 | 1299.5 ± 1.5 | 1295.2 ± 1.5 | 1290.9 ± 1.5 | 1286.7 ± 1.5 | 1282.5 ± 1.5 | 1278.3 ± 1.5 | 1274.1 ± 1.5 | viscosity (288.15 K): 204.35 ± 16 mPa·s; viscosity (293.15 K): 151.98 ± 9.2 mPa·s; viscosity (298.15 K): 115.55 ± 5.3 mPa·s; viscosity (303.15 K): 89.6 ± 2.9 mPa·s; viscosity (308.15 K): 70.72 ± 1.4 mPa·s; viscosity (313.15 K): 56.77 ± 0.62 mPa·s; viscosity (318.15 K): 46.23 ± 0.67 mPa·s; viscosity (323.15 K): 38.14 ± 0.56 mPa·s; viscosity (328.15 K): 31.86 ± 0.47 mPa·s; viscosity (333.15 K): 26.91 ± 0.4 mPa·s; viscosity (338.15 K): 22.95 ± 0.34 mPa·s; viscosity (343.15 K): 19.77 ± 0.29 mPa·s; viscosity (348.15 K): 17.16 ± 0.26 mPa·s; viscosity (353.15 K): 15.02 ± 0.23 mPa·s; viscosity (358.15 K): 13.23 ± 0.2 mPa·s; viscosity (363.15 K): 11.74 ± 0.18 mPa·s
